The record followed here is US12398107B2, “Fungicidal nitroanilino substituted pyrazoles” (FMC Corporation, priority 2018, dated 2025).

Structures are written as SMILES.

Holding throughout (format): in vivo
One test concerns Phakopsora pachyrhizi. As to the kind of experiment: Test D: Asian soybean rust, preventive spray on soybean seedlings. The following applies: 100 = 100% disease control, 0 = no control; for Test D disease control rating (Asian soybean rust) / pest or weed control at 50 ppm: 50 ppm; for pest or weed control at 50 ppm / pest or weed control at 10 ppm: Phakopsora pachyrhizi, read-out: Test D disease control rating (Asian soybean rust). The method in brief: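 Soybean seedlings sprayed to run-off with compound suspension (ppm, in 50/50 acetone/water with 250 ppm PEG400), inoculated next day with P. pachyrhizi spores, held 24 h saturated at 22°C then 8 days at 22°C. Visual rating 0-100% disease control relative to controls.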

Test [1] concerns Blumeria graminis f. sp. tritici. Kind of test: Test C: wheat powdery mildew, preventive spray on wheat seedlings. The following applies: rated after 8 days, 100 = 100% disease control, 0 = no control; for Test C disease control rating (wheat powdery mildew) / pest or weed control at 50 ppm: 50 ppm; for pest or weed control at 50 ppm / pest or weed control at 10 ppm: Blumeria graminis, 192 h, read-out: Test C disease control rating (wheat powdery mildew). The method in brief: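 Wheat seedlings got a run-off spray of test suspension (ppm in acetone/water 50/50, 250 ppm PEG400, acetone 3% of volume), then spore-dust inoculation with wheat powdery mildew one day later. After 8 days' growth-chamber incubation at 20° C, disease control scored visually on a 0–100 scale versus untreated controls.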

For the next test, the system named is Botrytis cinerea. As to the kind of experiment: Test E: tomato Botrytis, preventive spray on tomato seedlings. The following applies: 100 = 100% disease control, 0 = no control; for Test E disease control rating (tomato Botrytis) / pest or weed control at 50 ppm: 50 ppm; for pest or weed control at 50 ppm / pest or weed control at 10 ppm: Botrytis cinerea, read-out: Test E disease control rating (tomato Botrytis). The procedure, abridged: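 Preventive test: spore inoculation one day after run-off spraying of compound suspension (3% acetone, acetone/water 50/50, 250 ppm PEG400). Incubation 20 °C saturated humidity for 48 h, followed by 3 days at 24 °C growth chamber; disease control scored visually, 100 = full control.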

The subject of test [2] is Puccinia recondita f. sp. tritici. As to the kind of experiment: Test B: wheat leaf rust, preventive spray on wheat seedlings. Conditions: 100 = 100% disease control, 0 = no control relative to controls; for Test B disease control rating (wheat leaf rust) / pest or weed control at 50 ppm: 50 ppm; for pest or weed control at 50 ppm / pest or weed control at 10 ppm: read-out: Test B disease control rating (wheat leaf rust). The procedure, abridged:
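Wheat seedlings got a run-off spray (ppm, acetone/water 50/50, 250 ppm PEG400) and one day later a spore inoculum. After 24 h at 20° C. in saturated air and 7 days at 20° C., disease was scored as % control relative to controls (100 = full control).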

The subject of the next test is Alternaria solani. Kind of test: Test F: tomato early blight, preventive spray on tomato seedlings. The following applies: 100 = 100% disease control, 0 = no control; for Test F disease control rating (tomato early blight) / pest or weed control at 50 ppm: 50 ppm; for pest or weed control at 50 ppm / pest or weed control at 10 ppm: Alternaria solani, read-out: Test F disease control rating (tomato early blight). The procedure, abridged: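 Preventive test: one day after seedlings were sprayed to run-off with ppm-level suspensions (acetone/water 50/50, 250 ppm PEG400), A. solani spore inoculation followed. Incubation was 48 h at 27° C in saturated air plus 3 days at 20° C; disease control was scored visually versus controls (100 = full control).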

The subject of the next test is Septoria tritici. Kind of test: Test A: wheat leaf blotch, preventive spray on wheat seedlings. Conditions: 100 = 100% disease control, 0 = no control relative to controls; for Test A disease control rating (wheat leaf blotch) / pest or weed control at 50 ppm: 50 ppm; for pest or weed control at 50 ppm / pest or weed control at 10 ppm: Zymoseptoria tritici, read-out: Test A disease control rating (wheat leaf blotch). The procedure, abridged: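 Preventive test: seedlings sprayed to run-off one day before Septoria tritici spore inoculation, with ppm doses in acetone/water containing 250 ppm PEG400. After 48 h at 24 °C in saturated air and 17 days at 20 °C, plants were scored 0–100 for disease control versus untreated controls.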

Regarding `Cc1cc(Cl)c(Nc2c(-c3ccc(F)cc3F)c(C)nn2C)c([N+](=O)[O-])c1` [Compound 15], the “Test D disease control rating (Asian soybean rust)” value (“Test D disease control rating” for short) with Phakopsora pachyrhizi was found to be 61%. In addition, in test [1], the “Test C disease control rating (wheat powdery mildew)” value (“Test C disease control rating” below) is on record as 98%. Also, the “Test E disease control rating (tomato Botrytis)” value (shortened to “Test E disease control rating”) with Botrytis cinerea was 99%. Further, the “Test B disease control rating (wheat leaf rust)” value (shortened to “Test B disease control rating”) in test [2] is 100%. For the same compound, the “Test F disease control rating (tomato early blight)” value (shortened to “Test F disease control rating”) with Alternaria solani was found to be 53%. For the same compound, the “Test A disease control rating (wheat leaf blotch)” value (shortened to “Test A disease control rating”) in the test with Septoria tritici was determined as 100%.

On to `Cc1nn(C)c(Nc2c(F)cccc2[N+](=O)[O-])c1-c1c(F)cc(F)cc1Br` [Compound 1, 4-(2-bromo-4,6-difluorophenyl)-N-(2-fluoro-6-nitrophenyl)-1,3-dimethyl-1H-pyrazol-5-amine], for which the pest or weed control at 50 ppm came to 84% with Phakopsora pachyrhizi; 100% in test [1]; 100% in the test on Botrytis cinerea; 100% in test [2]; 99% with Alternaria solani; 100% in the test on Septoria tritici.

Take `Cc1cccc([N+](=O)[O-])c1Nc1c(-c2ccc(C#N)cc2Cl)c(C)nn1C` [Compound 157]: in the test with Phakopsora pachyrhizi, the “Test D disease control rating” value is given as 0%. Moreover, the “Test C disease control rating” value in test [1] is recorded as 76%. Also, the “Test E disease control rating” value with Botrytis cinerea worked out at 9%. In test [2], the “Test B disease control rating” value stood at 97%. Further, in the test on Alternaria solani, the “Test F disease control rating” value amounted to 0%. Moreover, in the test on Septoria tritici, the “Test A disease control rating” value is recorded as 100%.

For the compound `COc1ccc(Nc2c(-c3c(F)cc(F)cc3Br)c(C)nn2C)c([N+](=O)[O-])c1` [Compound 164], the “Test D disease control rating” value in the test with Phakopsora pachyrhizi was 0%. Also, in test [1], the “Test C disease control rating” value is listed as 98%. For the same compound, in the test with Botrytis cinerea, the “Test E disease control rating” value worked out at 100%. For the same compound, in test [2], the “Test B disease control rating” value worked out at 100%. Besides, the “Test F disease control rating” value in the test on Alternaria solani is recorded as 99%. For the same compound, the “Test A disease control rating” value in the test on Septoria tritici was determined as 100%.

Take `Cc1nn(C)c(Nc2c(F)cc(F)cc2[N+](=O)[O-])c1-c1c(F)cccc1F` [Compound 75]: the “Test D disease control rating” value in the test with Phakopsora pachyrhizi is given as 0%. In addition, the “Test C disease control rating” value in test [1] came out at 90%. For the same compound, the “Test E disease control rating” value with Botrytis cinerea is 57%. Moreover, the “Test B disease control rating” value in test [2] was 99%. In the test with Alternaria solani, the “Test F disease control rating” value is reported as 98%. For the same compound, the “Test A disease control rating” value with Septoria tritici turned out to be 100%.

Regarding `Cc1nn(C)c(Nc2c(F)cccc2[N+](=O)[O-])c1-c1ccc(Cl)cc1Cl` [Compound 69], the “Test D disease control rating” value with Phakopsora pachyrhizi is 77%. Moreover, the “Test C disease control rating” value in test [1] is recorded as 97%. In addition, in the test on Botrytis cinerea, the “Test E disease control rating” value stood at 100%. The “Test B disease control rating” value in test [2] turned out to be 100%. Further, the “Test F disease control rating” value in the test with Alternaria solani was determined as 99%. Besides, the “Test A disease control rating” value in the test on Septoria tritici was found to be 100%.

Regarding `Cc1nn(C)c(Nc2cccc(Cl)c2[N+](=O)[O-])c1-c1c(F)cccc1F` [Compound 99], the “Test D disease control rating” value in the test on Phakopsora pachyrhizi amounted to 0%. Besides, the “Test C disease control rating” value in test [1] is given as 0%. Besides, the “Test E disease control rating” value in the test on Botrytis cinerea is listed as 24%. The “Test B disease control rating” value in test [2] stood at 0%. For the same compound, the “Test F disease control rating” value with Alternaria solani was 0%. Also, the “Test A disease control rating” value in the test with Septoria tritici worked out at 99%.

For the compound `Cc1nn(C)c(Nc2c(F)cccc2[N+](=O)[O-])c1-c1ccc(F)cc1Cl` [Compound 112, 4-(2-chloro-4-fluorophenyl)-N-(2-fluoro-6-nitrophenyl)-1,3-dimethyl-1H-pyrazol-5-amine], the pest or weed control at 10 ppm in the test with Phakopsora pachyrhizi came to 52%; in test [1] it was 98%; in the test with Botrytis cinerea, 100%; in test [2], 100%; with Alternaria solani, 98%; with Septoria tritici it was 72%. Also, the pest or weed control at 50 ppm with Phakopsora pachyrhizi was determined as 99%; in test [1], 100%; in the test with Botrytis cinerea it was 100%; in test [2], 100%; in the test with Alternaria solani, 100%; with Septoria tritici, 88%.

As for `Cc1nn(C)c(Nc2c(F)cccc2[N+](=O)[O-])c1-c1ccc(F)cc1F` [Compound 118, 4-(2,4-difluorophenyl)-N-(2-fluoro-6-nitrophenyl)-1,3-dimethyl-1H-pyrazol-5-amine], the pest or weed control at 10 ppm in the test with Phakopsora pachyrhizi came out at 0%; in test [1], 27%; in the test with Botrytis cinerea it was 99%; in test [2], 80%; with Alternaria solani, 60%; with Septoria tritici, 100%. Further, the pest or weed control at 50 ppm with Phakopsora pachyrhizi is 0%; in test [1], 98%; in the test on Botrytis cinerea it was 100%; in test [2], 100%; with Alternaria solani, 99%; with Septoria tritici it was 100%.

Regarding `COc1cc(Cl)c(Nc2c(-c3ccc(F)cc3F)c(C)nn2C)c([N+](=O)[O-])c1` [Compound 141], in the test with Phakopsora pachyrhizi, the “Test D disease control rating” value turned out to be 0%. Moreover, the “Test C disease control rating” value in test [1] is 99%. The “Test E disease control rating” value in the test with Botrytis cinerea is 99%. In addition, the “Test B disease control rating” value in test [2] amounted to 100%. In the test with Alternaria solani, the “Test F disease control rating” value is on record as 83%. The “Test A disease control rating” value with Septoria tritici is on record as 99%.

Turning to `Cc1nn(C)c(Nc2c(F)cc(Br)cc2[N+](=O)[O-])c1-c1ccc(C#N)cc1Cl` [Compound 155], the “Test D disease control rating” value in the test with Phakopsora pachyrhizi is on record as 0%. Also, in test [1], the “Test C disease control rating” value is recorded as 90%. In addition, the “Test E disease control rating” value in the test with Botrytis cinerea is 100%. Moreover, in test [2], the “Test B disease control rating” value was 99%. Also, in the test with Alternaria solani, the “Test F disease control rating” value turned out to be 93%. The “Test A disease control rating” value in the test with Septoria tritici worked out at 99%.

As for `Cc1nn(C)c(Nc2c(F)cccc2[N+](=O)[O-])c1-c1c(F)cc(F)cc1F` [Compound 62], the “Test D disease control rating” value with Phakopsora pachyrhizi is reported as 100%. In addition, the “Test C disease control rating” value in test [1] is given as 100%. Also, the “Test E disease control rating” value in the test with Botrytis cinerea was found to be 99%. In addition, in test [2], the “Test B disease control rating” value came to 100%. The “Test F disease control rating” value in the test with Alternaria solani came out at 99%. Besides, the “Test A disease control rating” value with Septoria tritici came out at 100%.

As for `Cc1nn(C)c(Nc2c(F)cccc2[N+](=O)[O-])c1-c1c(F)cccc1F` [Compound 63], the “Test D disease control rating” value in the test on Phakopsora pachyrhizi turned out to be 0%. For the same compound, the “Test C disease control rating” value in test [1] turned out to be 86%. For the same compound, the “Test E disease control rating” value in the test with Botrytis cinerea was 100%. Besides, the “Test B disease control rating” value in test [2] was found to be 99%. Also, the “Test F disease control rating” value in the test with Alternaria solani is recorded as 96%. Moreover, in the test on Septoria tritici, the “Test A disease control rating” value was determined as 100%.

Consider `Cc1nn(C)c(Nc2c(F)cc(F)cc2[N+](=O)[O-])c1-c1ccc(F)cc1F` [Compound 58], for which the “Test D disease control rating” value in the test with Phakopsora pachyrhizi was found to be 36%. The “Test C disease control rating” value in test [1] is 99%. For the same compound, in the test on Botrytis cinerea, the “Test E disease control rating” value came out at 99%. In test [2], the “Test B disease control rating” value was determined as 100%. In addition, the “Test F disease control rating” value in the test on Alternaria solani was 99%. Moreover, the “Test A disease control rating” value with Septoria tritici came out at 100%.
